Data on five compounds can be found in patent US5536719A, “Benzothiadiazine compound” (Adir et Compagnie, priority 1994, dated 1996).

A value given as a limit tells only on which side of the number the result lay.

The test system of experiment [1] is AMPA receptor (rat cortex mRNA expressed in Xenopus oocytes). In words: excitatory currents induced by AMPA in Xenopus oocytes (voltage-clamp). It is filed as cell-based, rat (male Wistar) receptors expressed in Xenopus oocytes. Conditions: for EC2X (concentration which doubles the intensity of the current induced by AMPA alone) / EC5X (concentration which increases five-fold the intensity of the current induced by AMPA alone): Xenopus oocytes, rat cortex mRNA, agonist AMPA (30 mM [sic]). As to the method:
Study of the excitatory currents induced by AMPA in Xenopus oocytes mRNAs are prepared from male Wistar rat cerebral cortex by the guanidium thiocyanate/phenol/chloroform method. The poly(A^+) mRNAs are isolated by chromatography on oligo-dT cellulose and injected at an amount of 50 ng per oocyte. The oocytes are left to incubate for 2 to 3 days at 18° C. in order to allow expression of the receptors, and are then stored at 8°-10° C. The electrophysiological recording is performed in a plexiglass® chamber at 20°-24° C. in OR2 medium (J. Exp. Zool., 1973, 184, 321-334) by the "voltage-clamp" method with 2 electrodes, a 3rd electrode placed in the bath serving as reference. All the compounds are applied via the incubation medium and the electric current is measured at the end of the period of application. The AMPA is used at a concentration of […]. The concentration which doubles (EC2X) or which increases five-fold (EC5X) the intensity of the current induced by AMPA alone (50 to 100 nA) is determined for each compound studied.

The conditions of experiment [2]: Il Farmaco, Ed. Sc., 1978, 33, 713-720; cited from earlier work.
For experiment [3], the system named is AMPA receptors of neuronal cells. The note with it: Journal of Neurochemistry, 1992, 58, 1199-1204; cited from earlier work.
For the next experiment, the system named is kainate (KA). As to the kind of experiment: currents induced by kainate (KA) in Xenopus oocytes (selectivity). Format: cell-based, rat (male Wistar) receptors expressed in Xenopus oocytes.
Another experiment relates to NMDA. As to the kind of experiment: currents induced by NMDA in Xenopus oocytes (selectivity). Format: cell-based, rat (male Wistar) receptors expressed in Xenopus oocytes.
Experiment [4] has as its system slice of hippocampus (dentate gyrus EPSP). As to the kind of experiment: excitatory postsynaptic potentials (EPSP) induced by electrical stimulation on a slice of hippocampus. It is filed as cell-based, male Wistar rat. Conditions: compared with reference compounds, racemic mixture and R isomer. As to the method:
Study of the synaptic excitatory potentials induced by electrical stimulation on a slice of hippocampus
Transverse slices of hippocampus ([…]) from a male Wistar rat are prepared using a "tissue chopper" and then incubated for 45 minutes in calcium-free medium containing 10 mM Mg^++. They are then stabilized in Krebs adjusted to pH 7.35 and oxygenated with O2 /CO2 (95%/5%) at room temperature.
The slices are submerged at 35° C. and the excitatory postsynaptic potentials (EPSP) are recorded in the dendritic field of the […] of the dentate gyms during stimulation ([…]) every 30 seconds of the perforating route via a tungsten bipolar electrode.
The EPSPs are acquired and analyzed by means of an A-D converter, a TL-1 interface and "pCLAMP" software.
The amplitude and duration of the EPSPs are evaluated on the negative wave relative to the base current.
The compounds are applied for 10 to 20 minutes in the superfusion bath containing MgSO4 (1 mM) in order to block the activation of the NMDA receptors. The concentration increasing the amplitude of the EPSP by 50% (A50) is determined for each compound.

On to `O=S1(=O)NC2CCCN2c2ccccc21` (racemic) [Racemic mixture, 5,5-Dioxo-2,3,3a,4-tetrahydro-1H-pyrrolo[2,1-c]-[1,2,4]benzothiadiazine, reference compound], for which, in experiment [1], the “EC2X (concentration which doubles the intensity of the current induced by AMPA alone)” value is 60 µM and the “EC5X (concentration which increases five-fold the intensity of the current induced by AMPA alone)” value amounted to 160 µM. Further, in experiment [2], the “hypotensive and bradycardiac activities” value was “having hypotensive and bradycardiac activities”.

As to `COc1ccc(C(=O)N2CCCC2=O)cc1` [Aniracetam, reference compound], in experiment [1], the “EC2X (concentration which doubles the intensity of the current induced by AMPA alone)” value amounted to 1300 µM and the “EC5X (concentration which increases five-fold the intensity of the current induced by AMPA alone)” value amounted to 5000 µM. Besides, in experiment [3], the “modulation of AMPA receptors of neuronal cells” value was “positively modulating the AMPA receptors of neuronal cells”.

With `CC1=NS(=O)(=O)c2cc(Cl)ccc2N1` [Diazoxide, reference compound], in experiment [1], the “EC2X (concentration which doubles the intensity of the current induced by AMPA alone)” value amounted to 400 µM and the “EC5X (concentration which increases five-fold the intensity of the current induced by AMPA alone)” value was 1000 µM.

As to `O=S1(=O)N[C@H]2CCCN2c2ccccc21` [Example 1, (3aS)-5,5-Dioxo-2,3,3a,4-tetrahydro-1H-pyrrolo[2,1-c][1,2,4]benzothiadiazine], in experiment [1], the “EC2X (concentration which doubles the intensity of the current induced by AMPA alone)” value is 35 µM and the “EC5X (concentration which increases five-fold the intensity of the current induced by AMPA alone)” value came to 70 µM. Also, in experiment [1] (compared with reference compounds, racemic mixture and R isomer), the “potentiation of the excitatory effects of AMPA” value was “very strongly potentiates the excitatory effects of AMPA”. Also, in experiment [1] (selectivity table, agonist AMPA), the “EC2X, AMPA” value turned out to be 35 µM. Moreover, the “potentiation of the current (KA agonist)” value with kainate (KA) is reported as “no potentiation of the current is observed”. Also, the “EC2X, KA” value in the experiment on kainate (KA) (selectivity table, agonist kainate (KA)) is above 300 µM. Also, the “potentiation of the current (NMDA agonist)” value in the experiment with NMDA is given as “no potentiation of the current is observed”. The “EC2X, NMDA” value with NMDA (selectivity table, agonist NMDA) is above 300 µM. In addition, in experiment [4], the “increase of the amplitude of the EPSP” value is reported as “increases the amplitude of the EPSP at lower doses than the reference compounds, the racemic mixture or the R isomer”.

Consider `O=S1(=O)N[C@@H]2CCCN2c2ccccc21` [R isomer], for which, in experiment [1], the “EC2X (concentration which doubles the intensity of the current induced by AMPA alone)” value stood at 300 µM and the “EC5X (concentration which increases five-fold the intensity of the current induced by AMPA alone)” value is above 1000 µM.
